Here are results for 18 compounds from patent US20230413810A1, “SANITISING FORMULATION” (Lumendo AG, priority 2020, published 2023).

Format in all cases: cell-based
In assay [1] the test system is Staphylococcus aureus (ATCC 6538). Nature of the assay: Direct contact test on glass plates, Log10 reduction of S. aureus (CFU/mL). The method, then: The anti-microbial-retaining hydrogel formulation was prepared by the addition of Tetronic® 1107 tetramethacrylate (12.64% w/w), prepared according to Example 6, to glycerol (29.48% w/w). Then triethanolamine (0.84% w/w) was added in water (7.58% w/w), diphenyliodonium hexafluorophosphate (0.067% w/w) and 4-(diphenylphosphino)benzoic acid (0.166% w/w) were added in ethanol (8.16% w/w) and a specified amount of anti-microbial agent was added in PBS buffer ×1 (40.01% w/w). The mixture was placed into a thermoshaker and heated and shaken (50° C., 1200 rpm) for 20 minutes. Next, ethyl (2,4,6-trimethylbenzoyl) phenylphosphinate (0.31% w/w) and eosin Y (0.00125% w/w) were added to the mixture in ethanol (4.01% w/w) and the solution was mixed at room temperature for 20 seconds.
A 15 mL falcon tube containing 5 mL of BHI medium was inoculated with Staphylococcus aureus (ATCC 6538) and incubated overnight at 37° C. on a shaker (140 rpm). On the next day, a 15 mL falcon tube containing 5 mL BHI medium was inoculated with 100 μL of the overnight culture and incubated at 37° C. for 3.5 hours at 140 rpm.
Glass plates (18 mm×18 mm) were added with anti-microbial-retaining hydrogel formulation (50 μL) and covered with another glass plate (18 mm×18 mm) in the well of a 6-well plate. Samples were polymerized by the light from the laminar flow hood for 30 minutes. […]
S. aureus cultures were diluted to an OD600 (optical density at λ=600 nm) of 0.2 and 50 μL added to the glass plates (18 mm×18 mm) covered with the anti-microbial retaining hydrogel formulation of the present invention. Samples were covered with a glass plate (18 mm×18 mm) and incubated at 37° C. for 60 minutes. Bacteria were recovered by addition of 1 mL of BHI medium to each well and manually shaking the plate for 30 seconds. From each solution a four times ten-fold dilution series was prepared, resulting in 5 concentrations (each time adding 20 μL of the previous solution to 180 μL of PBS). A BHI agar plate was divided into 5 sectors and from each dilution, three drops of 10 μL were added to one sector. The plates were incubated overnight at 37° C. From the dilution containing 3-30 colonies, the CFU/mL (colony forming units per mL) were calculated and recorded.
Samples were prepared as triplicates. As negative controls, glass plates with no hydrogel and with hydrogel but no anti-microbial agent were prepared. As a control group, glass plates were added with stock solutions of the appropriate disinfectant in PBS (50 μL) at the same concentration as in the hydrogel.
For the washing of samples, the polymerized hydrogel sample was washed with 1 mL PBS solution, after which the PBS solution was removed. The sample was let air dry for 15 minutes before bacterial was then applied as described above.

Another assay has as its system P. aeruginosa. Nature of the assay: Direct contact test on glass plates, Log10 reduction of P. aeruginosa.
For assay [2], the system named is Staphylococcus aureus (ATCC 6538). Nature of the assay: Direct contact test on glass plates, Log10 reduction of S. aureus (CFU/mL). This is another data set of the same source.
Setting [3] is: modified anti-microbial agents 1% w/w in hydrogel formulation according to Example 22.
Where [4] appears, read: DDAC 0.1% w/w in polymerized hydrogel vs other sanitizing agents on glass surfaces, 0 washes.
[5] abbreviates: DDAC 0.1% w/w in polymerized hydrogel vs other sanitizing agents on glass surfaces, 5 washes with 1 mL water.
Where [6] appears, read: unmodified anti-microbial agents 0.1% w/w in hydrogel (Sterilium with no hydrogel), 0 washes with 1 mL water.
Setting [7] is: unmodified anti-microbial agents 0.1% w/w in hydrogel (Sterilium with no hydrogel), 5 washes with 1 mL water.
Setting [8] is: unmodified anti-microbial agents 1.0% w/w in hydrogel (Sterilium with no hydrogel), 0 washes with 1 mL water.
Where [9] appears, read: unmodified anti-microbial agents 1.0% w/w in hydrogel (Sterilium with no hydrogel), 5 washes with 1 mL water.

For “2-(N,N,N-Cetylmethylbenzylammonium)ethyl methacrylate bromide”, the “Log10 reduction of S. aureus” value in assay [1] (setting [3]) is reported as >2 Log10. In the assay on P. aeruginosa (setting [3]), the “Log10 reduction of P. aeruginosa” value is listed as <1 Log10.

“2-(N,N,N-Dodecyldimethylammonium)ethyl methacrylate bromide”: in assay [1] (setting [3]), the “Log10 reduction of S. aureus” value is reported as 3 Log10. Besides, the “Log10 reduction of P. aeruginosa” value with P. aeruginosa (setting [3]) is listed as 1 Log10.

For the compound “2-(N,N,N-dodecylmethylbenzylammonium)ethyl methacrylate bromide”, the “Log10 reduction of S. aureus” value in assay [1] (setting [3]) is given as >4 Log10. Also, the “Log10 reduction of P. aeruginosa” value with P. aeruginosa (setting [3]) came out at 3 Log10.

In the case of “9-(N,N,N-Benzylbutylmethylammonium)nonyl methacrylate bromide”, the “Log10 reduction of S. aureus” value in assay [1] (setting [3]) is recorded as <1 Log10. The “Log10 reduction of P. aeruginosa” value in the assay with P. aeruginosa (setting [3]) is listed as 1 Log10.

On to “12-(N,N,N-Benzylbutylmethylammonium)dodecyl methacrylate bromide”, for which, in assay [1] (setting [3]), the “Log10 reduction of S. aureus” value is given as >4 Log10. Further, in the assay on P. aeruginosa (setting [3]), the “Log10 reduction of P. aeruginosa” value is on record as 1 Log10.

For the compound “12-(N,N,N-Butyldimethylammonium)dodecyl methacrylate bromide”, the “Log10 reduction of S. aureus” value in assay [1] (setting [3]) was >1 Log10. In addition, in the assay with P. aeruginosa (setting [3]), the “Log10 reduction of P. aeruginosa” value came to 1 Log10.

Regarding “16-(N,N,N-Benzylbutylmethylammonium)cetyl methacrylate bromide”, the “Log10 reduction of S. aureus” value in assay [1] (setting [3]) is >4 Log10. In the assay on P. aeruginosa (setting [3]), the “Log10 reduction of P. aeruginosa” value is on record as <1 Log10.

For the compound `C=C(C)C(=O)OCCOCC[n+]1ccc(CCCCCCCCCCCCC)cc1.[Cl-]` [2-(4-Tridecylpyridin-1-uim)ethoxyethyl methacrylate chloride], the “Log10 reduction of S. aureus” value in assay [1] (setting [3]) is listed as >4 Log10. For the same compound, in the assay on P. aeruginosa (setting [3]), the “Log10 reduction of P. aeruginosa” value worked out at 1 Log10.

Turning to `C=C(C)C(=O)OCCOCC[n+]1ccc(CCCCCCCCCCCCCCCCC)cc1.[Cl-]` [2-(4-heptadecylpyridin-1-uim)ethoxyethyl methacrylate chloride], the “Log10 reduction of S. aureus” value in assay [1] (setting [3]) was >1 Log10. Also, the “Log10 reduction of P. aeruginosa” value in the assay on P. aeruginosa (setting [3]) is on record as <1 Log10.

With `C=C(C)C(=O)OCCOCC[N+](C)(C)CCCCCCCCCCCCCCCC.[Cl-]` [2-(N,N,N-Cetyldimethylammonium)ethoxyethyl methacrylate chloride], the “Log10 reduction of S. aureus” value in assay [1] (setting [3]) is reported as >1 Log10. Besides, in the assay with P. aeruginosa (setting [3]), the “Log10 reduction of P. aeruginosa” value is listed as >1 Log10.

On to `C=C(C)C(=O)OCC[N+](C)(C)CCOCCOc1ccc(C(C)(C)CC(C)(C)C)cc1.[Cl-]` [2-(methacryloyloxy)-N,N-dimethyl-N-(2-(2-(4-(2,4,4-trimethylpentan-2-yl)phenoxy)ethoxy)ethyl)ethan-1-aminium chloride], for which the “Log10 reduction of S. aureus” value in assay [1] (setting [3]) is >4 Log10; in assay [2] (1% w/w in hydrogel, 0 washes with 1 mL water), >4 Log10; in assay [2] (1% w/w in hydrogel, 5 washes with 1 mL water), >3 Log10; in assay [2] (1% w/w in hydrogel, 20 washes with 1 mL water), 4 Log10; in assay [2] (1% w/w in hydrogel, 2 hours soaking in water) it was >3 Log10. Besides, the “Log10 reduction of P. aeruginosa” value with P. aeruginosa (setting [3]) was 1 Log10.

For the compound `CC(C)O` [60% Isopropanol, Isopropanol], the “Log10 reduction of S. aureus” value in assay [2] (setting [4]) is reported as >4 Log10; in assay [2] (setting [5]), <1 Log10.

For the compound `CCO` [70% Ethanol, Ethanol], the figures for the “Log10 reduction of S. aureus” value in assay [2] (setting [4]) and in assay [2] (setting [5]) were >4 Log10 and <1 Log10, respectively.

For the compound `CC(C)(C)CC(C)(C)c1ccc(OCCOCC[N+](C)(C)Cc2ccccc2)cc1` [Anti-microbial agent on glass surface, benzethonium chloride], the “Log10 reduction of S. aureus” value is <1 Log10 in assay [1] (benzethonium chloride 0.1% w/w, on glass with no hydrogel or in polymerized hydrogel, 20 washes with 1 mL water); >4 Log10 in assay [2] (benzethonium chloride 0.1% w/w, on glass with no hydrogel or in polymerized hydrogel, 0 washes with 1 mL water); <1 Log10 in assay [2] (benzethonium chloride 0.1% w/w, on glass with no hydrogel or in polymerized hydrogel, 5 washes with 1 mL water); <1 Log10 in assay [2] (benzethonium chloride 0.1% w/w, on glass with no hydrogel or in polymerized hydrogel, 10 washes with 1 mL water).

Regarding `CC(C)(C)CC(C)(C)c1ccc(OCCOCC[N+](C)(C)Cc2ccccc2)cc1` [Benzethonium chloride, benzethonium chloride], the “Log10 reduction of S. aureus” value in assay [1] (0.1% w/w in hydrogel (Example 28), 20 washes with 1 mL water) is on record as 2 Log10; in assay [2] (0.1% w/w in hydrogel (Example 28), 0 washes with 1 mL water) it was 2 Log10; in assay [2] (0.1% w/w in hydrogel (Example 28), 5 washes with 1 mL water), 3 Log10; in assay [2] (0.1% w/w in hydrogel (Example 28), 2 hours soaking in water) it was 3 Log10; in assay [2] (setting [6]) it was 2 Log10; in assay [2] (setting [7]) it was 3 Log10.

Take `N=C(NCCCCCCNC(=N)NC(=N)Nc1ccc(Cl)cc1)NC(=N)Nc1ccc(Cl)cc1` [Chlorohexidine]: the “Log10 reduction of P. aeruginosa” value with P. aeruginosa (setting [8]) is recorded as >2 Log10; in the assay on P. aeruginosa (setting [9]), >4 Log10. Also, the “Log10 reduction of S. aureus” value in assay [2] (setting [6]) and in assay [2] (setting [7]) was >4 Log10 in each case.

On to `CCCCCCCCCC[N+](C)(C)CCCCCCCCCC.[Cl-]` [Didecyldimethylammonium chloride, didecyldimethylammonium chloride], for which the “Log10 reduction of P. aeruginosa” value is recorded as 2 Log10 in the assay with P. aeruginosa (setting [8]) and >4 Log10 with P. aeruginosa (setting [9]). Also, the “Log10 reduction of S. aureus” value in assay [2] (setting [6]) is >3 Log10; in assay [2] (setting [7]) it was >4 Log10.

Consider Benzalkonium chloride, for which the results for the “Log10 reduction of P. aeruginosa” value with P. aeruginosa (setting [8]) and in the assay on P. aeruginosa (setting [9]) were >1 Log10 and >4 Log10, respectively. For the same compound, the “Log10 reduction of S. aureus” value in assay [2] (setting [6]) is 2 Log10; in assay [2] (setting [7]), >4 Log10.
